Laboratory results from ChEMBL document CHEMBL1201862, “PubChem BioAssay data set” (2004).
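How tested: cells in 96-well plates exposed to compound for 48 hours at five concentrations. Here, GI50 denotes the concentration required for 50% inhibition of growth.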 Active and inactive are the calls of the source. No stated cut-off is given here; in the data, active = GI50 up to about 1.1 µM and inactive = higher.

How the values were obtained:
Assay in all cases: inhibition of tumour cell growth, NCI panel, 48 h
[1] = system: DLD-1
[2] = system: DMS-273
[3] = system: KM-20L2
[4] = system: LXFL 529
[5] = system: RXF 631
[6] = system: SNB-78
[7] = system: XF498
[8] = system: MDA-N
[9] = system: HOP-18

O=c1[nH]c(=O)n(C2CC(O)C(CO)O2)cc1/C=C/Br (stereo not given)
GI50 [1]: > 100 µM (inactive)
GI50 [2]: > 100 µM (inactive)
GI50 [3]: > 100 µM (inactive)
GI50 [4]: > 100 µM (inactive)
GI50 [5]: > 100 µM (inactive)
GI50 [6]: > 100 µM (inactive)
GI50 [7]: > 100 µM (inactive)

O=C(Nc1cccc(Cl)c1)Nn1cnnc1
GI50 [8]: > 100 µM (inactive)

N=C(N)N/N=C(/c1ccccc1)c1ccc(O)cc1O
GI50 [8]: 11.7 µM (inactive)

CC(=O)Oc1cc2c(cc1OCC(F)(F)F)[C@H]1CC[C@]3(C)[C@@H](OC(C)=O)CC[C@H]3[C@@H]1CC2=O
GI50 [8]: 24.1 µM (inactive)

Cc1c(-c2nc(N)nc(C3CC3)c2C)nc(N)nc1C1CC1
GI50 [8]: > 100 µM (inactive)

COc1ccc(SCc2cc(OC)ccc2OC)cc1
GI50 [8]: 3.33 µM (inactive)

CC(=O)OC[C@@]1(C)[C@@H]2[C@@H]3[C@@]4(CO[C@]3(C)C(=O)[C@@]3(O)C[C@H](C)[C@H](OC(C)=O)[C@@H]3[C@H]4OC(C)=O)[C@H](OC(=O)c3ccccc3)C[C@@H]21
GI50 [8]: > 100 µM (inactive)

Cn1c(=O)c2ccccc2c2ccccc21
GI50 [8]: 47.8 µM (inactive)

C=CCCCCCCC#CCCCCCCCCCC[C@@H]1C(=O)O[C@H](C)[C@@H]1O.CCCCCCCCC#CCCCCCCCCCC[C@@H]1C(=O)O[C@H](C)[C@@H]1O
GI50 [8]: 23.2 µM (inactive)

C/N=C(\N)N/N=C(\C)c1ccc2oc3ccc(/C(C)=N/N/C(N)=N/C)cc3c2c1
GI50 [8]: 3.62 µM (inactive)

O=C(Nc1c(O)[nH]c(=S)[nH]c1=O)c1ccccn1
GI50 [1]: > 100 µM (inactive)
GI50 [9]: > 100 µM (inactive)
GI50 [3]: > 100 µM (inactive)
GI50 [4]: > 100 µM (inactive)
GI50 [5]: > 100 µM (inactive)
GI50 [6]: > 100 µM (inactive)

O=C(c1c(O)cc(O)cc1O)C1Cc2ccccc21 (stereo not given)
GI50 [1]: > 100 µM (inactive)
GI50 [2]: 48.2 µM (inactive)
GI50 [9]: 3.18 µM (inactive)
GI50 [3]: > 100 µM (inactive)
GI50 [4]: > 100 µM (inactive)
GI50 [6]: 58.7 µM (inactive)

CC1=C(C(=O)OCCc2ccc([N+](=O)[O-])cc2)C(c2ccccc2C(F)(F)F)C(C(=O)OC(C)C)=C(C)N1 (stereo not given)
GI50 [8]: 4.33 µM (inactive)

Cc1nc(Cc2n[nH]c(C)n2)n[nH]1
GI50 [8]: > 100 µM (inactive)

N/C(=N\N=C\c1nc2ccccc2o1)c1cnccn1
GI50 [8]: > 100 µM (inactive)

Cc1cccc(/N=N/c2c(C)nn(C(=O)CC(=O)Nc3ccc(Cl)cc3)c2C)c1
GI50 [8]: 83.8 µM (inactive)

COc1nc(NC2OC(COC(C)=O)C(OC(C)=O)C(OC(C)=O)C2OC(C)=O)c(/N=C(\C)C(C)=O)c(=O)n1C (stereo not given)
GI50 [1]: > 100 µM (inactive)
GI50 [2]: > 10 µM (inactive)
GI50 [9]: > 100 µM (inactive)
GI50 [3]: > 100 µM (inactive)
GI50 [4]: > 100 µM (inactive)
GI50 [6]: > 100 µM (inactive)
GI50 [7]: > 100 µM (inactive)

CN1C(=O)C(c2c[nH]c3ccccc23)N(C)C(=O)C1c1c[nH]c2ccccc12 (stereo not given)
GI50 [8]: > 100 µM (inactive)

CC(=O)N1CCC2(c3ccccc3N(C(C)=O)C2c2ccc(O)cc2)C1C(=O)O (stereo not given)
GI50 [1]: > 100 µM (inactive)
GI50 [2]: > 100 µM (inactive)
GI50 [9]: > 100 µM (inactive)
GI50 [3]: > 100 µM (inactive)
GI50 [4]: > 100 µM (inactive)
GI50 [6]: > 100 µM (inactive)
GI50 [7]: > 100 µM (inactive)

Fc1ccccc1C1SCc2nc3ccccc3n21 (stereo not given)
GI50 [1]: 53.7 µM (inactive)
GI50 [2]: 31.3 µM (inactive)
GI50 [4]: 37.6 µM (inactive)
GI50 [5]: 31.3 µM (inactive)
GI50 [6]: > 100 µM (inactive)

COc1cc(C(SCc2ccccc2)SCc2ccccc2)ccc1O
GI50 [8]: > 10 µM (inactive)

N#CCCN(CCC#N)c1ccc(C(/N=N/c2ccc(Cl)cc2)=N\c2ccccc2)cc1
GI50 [8]: 10.9 µM (inactive)

O=C1CCC2(c3ccc(Cl)cc3)Nc3ncccc3N12 (stereo not given)
GI50 [1]: > 100 µM (inactive)
GI50 [3]: > 100 µM (inactive)
GI50 [4]: > 100 µM (inactive)
GI50 [6]: 63 µM (inactive)
GI50 [7]: > 100 µM (inactive)

COC(=O)CC1C(COC(C)=O)OC(n2cc(C)c(=O)[nH]c2=O)C1OC(C)=O (stereo not given)
GI50 [8]: > 100 µM (inactive)

COC(=O)C1C(=O)C=CN([C@H](C)c2ccccc2)[C@@H]1Cc1ccc(OC)c(OCc2ccccc2)c1I (stereo not given in full)
GI50 [8]: 15.6 µM (inactive)

C/C(=C\C(=O)O)C(=O)N(C)c1ccccc1I
GI50 [8]: > 100 µM (inactive)

CC(C)(c1cn(Cc2ccccc2)c2ccccc12)c1cn(Cc2ccccc2)c2ccccc12
GI50 [1]: 91.2 µM (inactive)
GI50 [4]: > 100 µM (inactive)
GI50 [6]: > 100 µM (inactive)

O=C(Cc1nc2ccccc2s1)Nc1ccc(Cl)cc1
GI50 [1]: 91.6 µM (inactive)
GI50 [2]: 84.7 µM (inactive)
GI50 [3]: 50.6 µM (inactive)
GI50 [4]: 44.2 µM (inactive)
GI50 [6]: > 100 µM (inactive)
GI50 [7]: > 100 µM (inactive)

CCN(CC)C(=C(C(Cl)=C(Cl)Cl)[N+](=O)[O-])N(CC)CC
GI50 [8]: 47.1 µM (inactive)

CC(C)(C)OC1=C(OC(C)(C)C)C(O)(c2ccccc2)C1=O (stereo not given)
GI50 [1]: > 100 µM (inactive)
GI50 [2]: > 100 µM (inactive)
GI50 [9]: > 100 µM (inactive)
GI50 [4]: > 100 µM (inactive)
GI50 [5]: > 100 µM (inactive)
GI50 [6]: > 100 µM (inactive)

C[N+]1(C)CCCC1C(=O)[O-] (stereo not given)
GI50 [1]: > 100 µM (inactive)
GI50 [2]: > 100 µM (inactive)
GI50 [9]: > 100 µM (inactive)
GI50 [3]: > 100 µM (inactive)
GI50 [4]: > 100 µM (inactive)
GI50 [6]: > 100 µM (inactive)
GI50 [7]: > 100 µM (inactive)

CCCCCCCCCCN(CCCCCCCCCC)C(=O)COc1c2cc(C(C)(C)C)cc1Cc1cc(C(C)(C)C)cc(c1OCC(=O)N(CCCCCCCCCC)CCCCCCCCCC)Cc1cc(C(C)(C)C)cc(c1OCC(=O)N(CCCCCCCCCC)CCCCCCCCCC)Cc1cc(C(C)(C)C)cc(c1OCC(=O)N(CCCCCCCCCC)CCCCCCCCCC)C2
GI50 [8]: 12.2 µM (inactive)

COC1(OC)CCc2c(sc3ncnc(Nc4cccc(Br)c4)c23)C1
GI50 [8]: 35.4 µM (inactive)

C[N+](C)(C)CCC(=O)N1C/C(=C\c2ccccc2)C(=O)/C(=C/c2ccccc2)C1
GI50 [1]: 2.2 µM (inactive)
GI50 [2]: 2.19 µM (inactive)
GI50 [9]: 12.2 µM (inactive)
GI50 [3]: 8 µM (inactive)
GI50 [4]: 3.78 µM (inactive)
GI50 [8]: 1.9 µM (inactive)
GI50 [6]: 6.65 µM (inactive)
GI50 [7]: 14.5 µM (inactive)

CC(C)/C(Cl)=N\OC(=O)Nc1ccc(F)c([N+](=O)[O-])c1
GI50 [8]: 14 µM (inactive)

Nc1ccc2c(c1)C(=O)c1ccc(F)cc1-2
GI50 [8]: > 100 µM (inactive)

Cc1c(C)c2c(c(N)c1C#N)C(=O)N(CCN1CCNCC1)C2=O
GI50 [8]: 40.9 µM (inactive)

N#CCOc1cccc(C2(N3CC=CCC3)CCCCC2)c1
GI50 [8]: > 100 µM (inactive)

Clc1ccc(C(OCn2ccnc2)c2nc3ccccc3[nH]2)c(Cl)c1 (stereo not given)
GI50 [8]: 37.5 µM (inactive)

O=C(c1ccccc1)c1ccc2c(c1)nc1n2C(c2c(Cl)cccc2Cl)SC1 (stereo not given)
GI50 [8]: 41.7 µM (inactive)

Cc1ccc([N+](=O)[O-])cc1S(=O)(=O)Nc1ccc(C2=NNC(c3ccccc3)C2)cc1 (stereo not given)
GI50 [8]: 23.9 µM (inactive)

Cc1n[nH]c(=O)n1/N=C/c1ccc([N+](=O)[O-])cc1
GI50 [8]: > 100 µM (inactive)

CSc1cc(Cl)c(C(=O)Nc2ccccc2)cc1S(=O)(=O)n1ccnc1O
GI50 [8]: > 100 µM (inactive)

N#COc1ccc(Oc2ccccc2)cc1
GI50 [1]: > 100 µM (inactive)
GI50 [2]: 22.5 µM (inactive)
GI50 [9]: > 100 µM (inactive)
GI50 [3]: > 100 µM (inactive)
GI50 [4]: > 100 µM (inactive)
GI50 [6]: 36.8 µM (inactive)
GI50 [7]: 97.3 µM (inactive)

CC1=NN(c2cccc(Cl)c2)C2(SCC(=O)N2c2nc3ccccc3s2)/C1=C\c1ccccc1 (stereo not given)
GI50 [8]: 20.9 µM (inactive)

C[n+]1ccccc1/C=C/c1ccc2c(c1)OCO2
GI50 [8]: > 10 µM (inactive)

Nc1ncnc2sc(Nc3ccccc3)nc12
GI50 [1]: > 100 µM (inactive)
GI50 [2]: > 100 µM (inactive)
GI50 [3]: 43.8 µM (inactive)
GI50 [4]: > 100 µM (inactive)
GI50 [5]: 9.86 µM (inactive)
GI50 [6]: > 100 µM (inactive)
GI50 [7]: > 100 µM (inactive)

N#CC1CC2(CCN1C(=O)c1ccccc1)OCCO2 (stereo not given)
GI50 [1]: > 100 µM (inactive)
GI50 [2]: > 100 µM (inactive)
GI50 [9]: > 100 µM (inactive)
GI50 [3]: > 100 µM (inactive)
GI50 [4]: > 100 µM (inactive)
GI50 [6]: > 100 µM (inactive)
GI50 [7]: > 100 µM (inactive)

O=C1CC(c2cccc([N+](=O)[O-])c2)C2(C(=O)NC(=S)NC2=O)C(c2cccc([N+](=O)[O-])c2)C1 (stereo not given)
GI50 [8]: 43 µM (inactive)

O=S(=O)(O)/C(=N\c1cccc(Cc2ccccc2)c1)Nc1cccc(Cc2ccccc2)c1
GI50 [8]: 20.4 µM (inactive)

Cc1ccccc1Nc1cn(CCOc2ccccc2)c(=O)n(CCOc2ccccc2)c1=O
GI50 [8]: > 100 µM (inactive)

CCOC(=O)Cc1nnc2c(-c3ccccc3)nc3ccccc3n12
GI50 [8]: > 100 µM (inactive)

O=C1c2ccccc2C(=O)c2c(NCC3CO3)cccc21 (stereo not given)
GI50 [8]: 8.99 µM (inactive)

CC(=O)OCC1OC(OCC2OC(N3C(=S)N[C@H]([C@@H](O)[C@H](O)[C@H](O)CO)[C@H]3O)C(OC(C)=O)C(OC(C)=O)C2OC(C)=O)C(OC(C)=O)C(OC(C)=O)C1OC(C)=O (stereo not given in full)
GI50 [8]: > 100 µM (inactive)

CN(C)c1ccc2c(SCC(=O)OCC(=O)[C@@]3(O)CC[C@H]4[C@@H]5CCC6=CC(=O)C=C[C@]6(C)[C@H]5C(=O)C[C@@]43C)c3ccc(N(C)C)cc3nc2c1
GI50 [8]: 14.4 µM (inactive)

CC1(C)[C@@H]2CC[C@@]1(C)C1(S[S+]1[O-])C21Cc2ccccc2C1 (stereo not given in full)
GI50 [8]: 17.1 µM (inactive)

CC[C@H](C)[C@H](NC(=O)[C@@]1(O)[C@H](O)[C@]2(CC)C=CCN3CC[C@@]4(c5cc(Br)c(OC)cc5N(C)[C@@H]14)[C@@H]32)C(=O)OC
GI50 [8]: 25.6 µM (inactive)

CC1CCC2CC(=O)OC([C@@H]3C(=O)O[C@@H](C4=CCCC4)C4C(C)CCC43)C12 (stereo not given in full)
GI50 [1]: 84.5 µM (inactive)
GI50 [2]: > 100 µM (inactive)
GI50 [9]: > 100 µM (inactive)
GI50 [3]: 92.3 µM (inactive)
GI50 [4]: 47.4 µM (inactive)
GI50 [6]: > 100 µM (inactive)
GI50 [7]: > 100 µM (inactive)

Nc1cccc(-c2cc(O)c3cc4c(cc3n2)OCO4)c1
GI50 [2]: 0.889 µM (active)
GI50 [9]: 40.2 µM (inactive)
GI50 [4]: 0.527 µM (active)
GI50 [8]: 0.216 µM (active)
GI50 [6]: 0.834 µM (active)
GI50 [7]: 7.26 µM (inactive)

Cc1c2cc[n+](C)cc2c(C)c2c1[nH]c1ccc(OCC(F)(F)F)cc12
GI50 [1]: 1.4 µM (inactive)
GI50 [2]: 1.25 µM (inactive)
GI50 [9]: 1.96 µM (inactive)
GI50 [3]: 3.15 µM (inactive)
GI50 [4]: 0.501 µM (active)
GI50 [6]: 0.622 µM (active)

COc1ccc(-c2cc(=O)c3ccc(O)cc3o2)c(OC)c1OC
GI50 [1]: 93.1 µM (inactive)
GI50 [3]: 43 µM (inactive)
GI50 [4]: 66.8 µM (inactive)
GI50 [7]: 65.5 µM (inactive)

O=c1[nH]cc(F)c(=O)[nH]1 [FLUOROURACIL]
GI50 [8]: 8.07 µM (inactive)
